Laboratory results reported in patent US7452997B2 (priority 2004, dated 2008).
Read-outs that look alike come from different tables or passages of the source.

Legend:
human CB2 receptor [1] = biological target: T1, human CB2 receptor (Homo sapiens, UniProt P34972); assay: Functional cell-based assay, CB2 receptor mediated change in CRE β-gal expression (agonist / inverse agonist); conditions: SK-N-MC cells, forskolin
Description: (§1) Functional Cell-Based Assay for CB1 or CB2 Agonist and Inverse Agonist Effects on Intra-Cellular Adenylate Cyclase Activity
(§2) The CB1 and CB2 receptors are G-protein coupled receptors (GPCR) which influence cell function via the Gi-protein. These receptors modulate the activity of intracellular adenylate cyclase which in turn produces the intracellular signal messenger cyclic-AMP (cAMP).
(§3) At baseline, or during non-ligand bound conditions, these receptors are constitutively active and tonically suppress adenylate cyclase activity. The binding of an agonists causes further receptor activation and produces additional suppression of adenylate cyclase activity. The binding of an inverse agonist inhibits the constitutive activity of the receptors and results in an increase in adenylate cyclase activity.
(§4) By monitoring intracellular adenylate cyclase activity, the ability of compounds to act as agonists or inverse agonists can be determined.
(§5) Test compounds were evaluated in SK-N-MC cells which, using standard transfection procedures, were stably transfected with human cDNA for pcDNA3-CRE β-gal and pcDNA3 CB1 receptor (human) or pcDNA3 CB2 receptor (human). By expressing CRE β-gal, the cells produced β-galactosidase in response to CRE promoter activation by cAMP. Cells expressing CRE β-gal and either the human CB1 or CB2 receptor will produce less β-galactosidase when treated with a CB1/CB2 agonist and will produce more β-galactosidase when treated with a CB1/CB2 inverse agonist.
(§6) The cells were grown in 96-well plates under standard cell culture conditions at 37° C. in a 5% CO2 atmosphere. After 3 days, the media was removed and a test compound in media (wherein the media was supplemented with 2 mM L-glutamine, […] sodium pyruvate, 0.1% low fatty acid FBS (fetal bovine serum) and antibiotics) was added to the cell. The plates were incubated for 30 minutes at 37° C. and the plate cells were then treated with forskolin over a 4-6 hour period, then washed and lysed. The β-galactosidase activity was quantitated using commercially available kit reagents (Promega Corp. Madison, Wis.) and a VMAX Plate Reader (Molecular Devices, Inc).
For cells expressing CRE β-gal and the CB2 receptor, CB2 agonists reduced β-galactosidase activity in a dose-dependent manner and CB2 inverse agonists increased β-galactosidase activity in a dose-dependent manner.
(§7) The change in β-galactosidase activity was determined by setting a vehicle treated cell's activity value at 100% and expressing the β-galactosidase activity measured in a corresponding compound treated cell as a percent of the vehicle treated cell activity.
(§8) The EC50 values for compounds tested were calculated by linear regression and were obtained from studies in which varying compound concentrations were used.

human CB2 receptor [2] = biological target: T1, human CB2 receptor; assay: Binding assay, cannabinoid CB2 receptor ([3H]-CP-55,940 displacement); conditions: Cannabinoid CB2 Receptor Binding IC50, human CB2 receptor, SK-N-MC cell membranes, radioligand CP-55,940 0.2 nM
How it was run: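 Displacement of [3H]-CP-55,940 (0.2 nM) was measured over 90 min at 30 °C (pH 7.5 Tris/MgCl2/EDTA buffer with BSA), using semi-purified membranes of human CB2-transfected SK-N-MC cells. Bound counts collected on GF/C filters, 10 uM WIN 55,212 as nonspecific control; IC50 from varied concentrations.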

human CB1 receptor [3] = biological target: T2, human CB1 receptor (Homo sapiens, UniProt P21554); assay: biochemical; format: binding
T2 construct: expressed in transfected cells; host or cells: SK-N-MC cells, stably transfected with pcDNA3 CB-1 (human); semi-purified membrane pellet
How it was run: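 Radioligand binding was run at 30° C for 90 minutes, pH 7.5 Tris buffer containing 0.5 mg/mL fatty acid free BSA, on semi-purified membranes of stably transfected SK-N-MC cells. Filter-bound radioactivity was scintillation counted, with IC50 obtained by linear regression across compound concentrations.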

human CB1 receptor [4] = biological target: T2, human CB1 receptor; assay: Functional cell-based assay, CB1 receptor mediated change in CRE β-gal expression (agonist / inverse agonist)
Description: as §1, §2, §3, §4, §5, §6, §7, §8

[5] = inverse agonist, read-out: CB2 Receptor Functional Inverse Agonist EC50

T2 sequence (P21554 whole entry): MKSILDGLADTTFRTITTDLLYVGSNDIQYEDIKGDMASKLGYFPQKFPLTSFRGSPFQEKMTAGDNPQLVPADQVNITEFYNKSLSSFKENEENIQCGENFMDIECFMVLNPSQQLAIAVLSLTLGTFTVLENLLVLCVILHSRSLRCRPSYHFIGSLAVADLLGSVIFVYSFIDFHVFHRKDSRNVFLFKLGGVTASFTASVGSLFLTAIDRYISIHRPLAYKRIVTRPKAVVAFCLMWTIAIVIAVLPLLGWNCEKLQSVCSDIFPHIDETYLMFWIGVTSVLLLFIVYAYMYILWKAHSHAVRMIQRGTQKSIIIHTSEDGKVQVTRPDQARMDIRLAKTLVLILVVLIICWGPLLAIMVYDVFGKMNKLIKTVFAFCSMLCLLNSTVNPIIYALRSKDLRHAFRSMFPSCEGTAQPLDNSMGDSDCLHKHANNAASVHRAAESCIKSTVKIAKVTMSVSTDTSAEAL
T1 sequence (P34972 whole entry): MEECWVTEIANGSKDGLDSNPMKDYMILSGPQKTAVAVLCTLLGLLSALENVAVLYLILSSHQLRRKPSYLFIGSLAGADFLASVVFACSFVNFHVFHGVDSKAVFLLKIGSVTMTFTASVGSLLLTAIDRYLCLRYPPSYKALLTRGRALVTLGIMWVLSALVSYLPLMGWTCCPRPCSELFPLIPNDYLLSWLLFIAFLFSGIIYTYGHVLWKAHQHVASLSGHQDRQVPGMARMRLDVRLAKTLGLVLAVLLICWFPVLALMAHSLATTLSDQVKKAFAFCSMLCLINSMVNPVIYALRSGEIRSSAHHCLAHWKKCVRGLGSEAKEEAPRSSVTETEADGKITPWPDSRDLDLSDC

SMILES | EC50 (human CB2 receptor [1]; agonist, read-out: CB2 Receptor Functional Agonist EC50) | IC50 (human CB2 receptor [2]) | IC50 (human CB1 receptor [3]) | EC50 (human CB1 receptor [4]) | EC50 (human CB2 receptor [1]; [5])
CCOC(=O)C1C2CCC(C2)C1NC(=O)c1nn(C2CCCCC2)c2c1CCCC2 (centres unmarked) [compound 28] | 330 nM | 7.5 nM | 850 nM | 2030 nM | –
CCOC(=O)C1CCc2c(c(C(=O)NC3C4(C)CCC(C4)C3(C)C)nn2C2CCCCC2)C1 (centres unmarked) [compound 67] | – | 15.5 nM | 300 nM | 524 nM | 23 nM
CCOC(=O)C1CCc2c(C(=O)NC3C4(C)CCC(C4)C3(C)C)nn(C3CCCCC3)c2C1 (centres unmarked) [compound 70] | – | 16 nM | 125 nM | 1000 nM | 45.9 nM
CCOC(=O)[C@@H]1CCc2c(c(C(=O)NC3C4(C)CCC(C4)C3(C)C)nn2-c2ccccc2)C1 (some centres unmarked) [compound 220] | – | 230 nM | – | 399 nM | 220 nM
CCOC(=O)C1CCc2c(c(C(=O)NC3C4CC5CC(C4)CC3C5)nn2C2CCCCC2)C1 (centres unmarked) [compound 222] | – | 4.9 nM | 280 nM | 194 nM | 33 nM
CCOC(=O)C1CCc2c(c(C(=O)NC3C4CC5CC(C4)CC3C5)nn2Cc2ccccc2)C1 (centres unmarked) [compound 226] | – | 5.5 nM | 7.9 nM | 520 nM | 65 nM
CC1(C)[C@@H]2CC[C@@](C)(C2)[C@H]1NC(=O)c1nn(-c2ccc(Cl)cc2Cl)c2c1CCC/C2=C\c1ccc(Cl)cc1 [compound 292] | – | 60 nM | 33 nM | 9 nM | –
C[C@@H](NC(=O)c1nn(-c2ccc(Cl)cc2Cl)c2c1CCC/C2=C\c1ccc(Cl)cc1)C1CCCCC1 [compound 293] | – | 600 nM | 6 nM | 25 nM | –
C[C@H](NC(=O)c1nn(-c2ccc(Cl)cc2Cl)c2c1CCC/C2=C\c1ccc(Cl)cc1)c1ccccc1 [compound 294] | – | 700 nM | 110 nM | 140 nM | –
C[C@H](NC(=O)/C=C/c1nn(Cc2ccccc2)c2c1CCCC2)c1ccccc1 [compound 305] | – | 7200 nM | 9800 nM | 630 nM | –
C[C@H](NC(=O)c1nn(-c2ccc(Cl)cc2Cl)c2c1CCCC2=Cc1ccc(Cl)cc1)C1CCCCC1 [compound 321] | – | 600 nM | 230 nM | 133 nM | –
CC12CCC(C1)C(C)(C)C2NC(=O)Nc1nn(Cc2ccccc2)c2c1CCCC2 (centres unmarked) [compound 338] | – | 27 nM | 1350 nM | 6 nM | –
